The values below come from paper PMC6479814, “Structure-Based Design of Novel Benzimidazole Derivatives as Pin1 Inhibitors” (Molecules, 2019).

Molecules are shown by their SMILES. Where two headings read alike, the source gives them in different places.

On the set-up of data set [1]: method as in PMID 29170140. Particulars: in humans; cited from earlier work.
In data set [2] the test system is tumor cells. Also on record: method as in PMID 19729306, PMID 20207139, PMID 25091930. Particulars: result in words; cited from earlier work.
Data set [3] has as its system PC-3 cells. In words: In vitro anti-proliferative MTT assay. The class given is cell-based, human. Particulars: for GI50: Homo sapiens, PC-3 cells, MTT, 96 h; for antiproliferative activity against human prostate cancer PC-3 cells: result in words. Here is the method:
As for Pin1 was overexpressed in human prostate cancer cells, the antiproliferative activity of these benzimidazole derivatives against PC-3 cells were further evaluated by MTT assay. Meanwhile, the polar surface area (PSA) of these compounds was calculated under the optimal conformation since PSA is the key indicator of membrane permeability.
The tested cells were plated in 96-well microtiter plates with a density of 2,000 cells/well and incubated in a humidified atmosphere with 5% CO2 at 37 °C for 24 h. The cells were then exposed to tested compounds of different concentrations in triplicate. After incubated for 96 h, 50 μL of 3-(4,5-dimethylthiazol-2-yl)-2,5-diphenyltetrazolium bromide (MTT) solution (2 mg/mL) was added to each well and incubated for an additional 4 h. Then the suspernatant was discarded and the fromazan was dissolved in 200 μL of dimethyl sulfoxide (DMSO). The plate was oscillated subtly at room temperature for 10 min before the absorbance was measured at 570 nm by a microplate reader. Cell inhibitory ratio was calculated with the following formula:Inhibitory Rate (%) = [(Acontrol − Atreated)/Acontrol] × 100%(1)
The GI50 was determined as the concentration that caused half inhibition of cell proliferation. All experiments were performed three times independently, and the results were reported presented as the mean.
In general terms: Formazan colour is commonly taken as a measure of viable cells.

The target of data set [4] is T1, Pin1 (Homo sapiens, UniProt Q13526).
T1 construct: purchased Sino Biological Inc., Beijing, China
In words: Pin1 inhibition, protease-coupled assay. The class given is biochemical. Particulars: 10 °C; for inhibition at 10 µM: Pin1, compound at 10 μM; for IC50: Pin1, protease-coupled assay. The protocol: To investigate the Pin1 inhibitory potency of all synthesized compounds, the inhibition ratio at 10 μM or IC50 of all synthesized compounds was determined using protease-coupled assay.
Pin1 inhibitory activities were measured at 10 °C by protease-coupled assay as reported previous. Suc-Ala-Glu-cis-Pro-Phe-4-nitroaniline (Bachem, Bubendorf, Switzerland) in 0.47 mol/L, LiCl/trifluoroethanol was used as the substrate. The assay buffer (860 μL of 35 mM HERES at pH 7.8), Pin1 (20 μL, Bought from Sino Biological Inc., Beijing, China) and target compounds (10 μL of varying comcentrations in DMSO) were pre-equilibtated in the cuvette at 10 °C for 30 min. Then, 150 uL of ice-cooled chymotrypsin (60 mg/mL in 0.001 M/HCl) was added and mixed immediately. Additional substrate (40 μL) was added to start the assay and the reaction was monitored by absorbance at 390 nm for 90 s. For each compound, four concentrations (10 μM, 3.3 μM, 1.1 μM, 0.37 μM) were chosen, and the assay was performed in duplicate. The data was analyzed by Graphpad Prism 6.0.

The target in data set [5] is T1, Pin1. Particulars: known Pin1 inhibitors, Figure 1; cited from earlier work.

T1 sequence (Q13526 whole entry): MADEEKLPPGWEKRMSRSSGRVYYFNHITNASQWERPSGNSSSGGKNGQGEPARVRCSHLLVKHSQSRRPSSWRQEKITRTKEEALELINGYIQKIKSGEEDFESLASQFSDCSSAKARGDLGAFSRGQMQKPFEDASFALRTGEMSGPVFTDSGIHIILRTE

On to `CC1=C(/C=C/C(C)=C/C=C/C(C)=C/C(=O)O)C(C)(C)CCC1` [ATRA, all-trans retinoic acid], for which the half-life in data set [1] is on record as 45 min.

For the molecule `O=Cc1nc2ccccc2[nH]1` [Compound 2], the “antiproliferative activities against tumor cells” value in data set [2] was “did not exhibit antiproliferative activities”.

In turn, `Cc1ccc(NC(=O)CCn2c(/C=C/C(=O)O)nc3ccccc32)cc1` [Compound 6d, (E)-3-(1-(3-Oxo-3-(p-tolylamino)propyl)-1H-benzo[d]imidazol-2-yl)acrylic acid] registered a melting point of 221 to 222 °C. Besides, in data set [3], the GI50 turned out to be 17.4 µM and the “antiproliferative activity against human prostate cancer PC-3 cells” value is “moderate antiproliferative activity”. In data set [4], this molecule returned an inhibition at 10 µM of 75% and an IC50 of 1.65 µM.

Take `O=C(O)/C=C/c1nc2ccccc2n1CCC(=O)Nc1cccc(Br)c1` [Compound 6h, (E)-3-(1-(3-((3-Bromophenyl)amino)-3-oxopropyl)-1H-benzo[d]imidazol-2-yl)acrylic acid]: the melting point was in the range of 209 to 210 °C. In addition, in data set [3], the GI50 came out at 9.89 µM and the “antiproliferative activity against human prostate cancer PC-3 cells” value is “moderate antiproliferative activity”. For the same molecule, in data set [4], at 10 µM the inhibition was 90% and the IC50 was found to be 0.64 µM.

Molecule `COc1cc(NC(=O)CCn2c(/C=C/C(=O)O)nc3ccccc32)cc(OC)c1` [Compound 6i, (E)-3-(1-(3-((3,5-dimethoxyphenyl)amino)-3-oxopropyl)-1H-benzo[d]imidazol-2-yl)acrylic acid] displayed a melting point of 203 to 204 °C. In data set [3], the GI50 was > 50 µM. In addition, at 10 µM the inhibition in data set [4] was 60%.

In turn, `COc1ccc(CCNC(=O)CCn2c(/C=C/C(=O)O)nc3ccccc32)cc1` [Compound 6m, (E)-3-(1-(3-((4-Methoxyphenethyl)amino)-3-oxopropyl)-1H-benzo[d]imidazol-2-yl)acrylic acid] yielded a melting point of 219 to 220 °C. Moreover, in data set [3], the GI50 is > 50 µM. Besides, the inhibition at 10 µM in data set [4] is 49%.

`O=C(CCn1c(-c2nc(C(=O)O)cs2)nc2ccccc21)Nc1cccc(Br)c1` [Compound 13b, 2-(1-(3-((3-Bromophenyl)amino)-3-oxopropyl)-1H-benzo[d]imidazol-2-yl)thiazole-4-carboxylic acid] showed a melting point of 210 to 212 °C. In data set [3], the 50% growth inhibitory concentration (GI50) was > 50 µM. In addition, in data set [4], the inhibition at 10 µM was determined as 87% and the IC50 came out at 0.89 µM.

`O=C(CCn1c(-c2nc(C(=O)O)cs2)nc2ccccc21)Nc1cc(Cl)cc(Cl)c1` [Compound 13i, 2-(1-(3-((3,5-Dichlorophenyl)amino)-3-oxopropyl)-1H-benzo[d]imidazol-2-yl)thiazole-4-carboxylic acid] displayed a melting point of 192 to 194 °C. Moreover, the GI50 in data set [3] was > 50 µM. In data set [4], this molecule registered an inhibition at 10 µM of 80% and an IC50 of 1.35 µM.

As to `Nc1nc(OCc2ccc(CNC(=O)C(F)(F)F)cc2)c2nc[nH]c2n1` [API-1], in data set [5], the IC50 was 0.07 µM.

Molecule `Cc1ccc(NC(=O)CCn2c(CCC(=O)O)nc3ccccc32)cc1` [Compound 7a, 3-(1-(3-Oxo-3-(p-tolylamino)propyl)-1H-benzo[d]imidazol-2-yl)propanoic acid] registered a melting point of 66 to 68 °C. For the same molecule, in data set [3], the GI50 is > 50 µM. Moreover, the inhibition at 10 µM in data set [4] came out at 60%.

As for `O=C(O)/C=C/c1nc2ccccc2n1CCC(=O)NCc1ccc(Br)cc1` [Compound 6j, (E)-3-(1-(3-((4-Bromobenzyl)amino)-3-oxopropyl)-1H-benzo[d]imidazol-2-yl)acrylic acid], the melting point is 210 to 212 °C. Further, in data set [3], the GI50 is > 50 µM. For the same molecule, in data set [4], the inhibition at 10 µM came out at 59%.

In turn, `O=C(O)/C=C/c1nc2ccccc2n1CCC(=O)Nc1ccccc1` [Compound 6c, (E)-3-(1-(3-Oxo-3-(phenylamino)propyl)-1H-benzo[d]imidazol-2-yl)acrylic acid] returned a melting point of 228 to 230 °C. Besides, the GI50 in data set [3] is > 50 µM. Also, at 10 µM the inhibition in data set [4] was 46%.

Turning to `O=C(O)/C=C/c1nc2ccccc2n1CCC(=O)Nc1ccc(Cl)cc1` [Compound 6f, (E)-3-(1-(3-((4-Chlorophenyl)amino)-3-oxopropyl)-1H-benzo[d]imidazol-2-yl)acrylic acid], the melting point lay in the range of 158 to 160 °C. The GI50 in data set [3] was > 50 µM. Further, the inhibition at 10 µM in data set [4] is 54%.

Molecule `O=C(O)CCc1nc2ccccc2n1CCC(=O)Nc1ccc(Cl)cc1` [Compound 7b, 3-(1-(3-((4-Chlorophenyl)amino)-3-oxopropyl)-1H-benzo[d]imidazol-2-yl)propanoic acid] displayed a melting point of 66 to 68 °C. The GI50 in data set [3] is > 50 µM. The molecule also showed an inhibition at 10 µM in data set [4] of 31%.

Broadly, the half-life is the time in which the quantity being followed falls by half. The GI50 is the concentration giving 50% growth inhibition. A high value points to lower sensitivity of the cells. By melting point is commonly meant the temperature, or range, at which the solid turns liquid. Broadly, the inhibition is the change of the read-out against control, counted positive when it falls. Read a low inhibition as a weak effect. In general, IC50 refers to the concentration needed to halve the response being measured.
